Source: patent US8946268B2, “Modulators of HEC1 activity and methods therefor” (Taivex Therapeutics, Inc., priority 2010, dated 2015)
Values joined by “and” are separate entries in the source; they are usually repeats but may differ in a detail not shown here. Identical values can stand only once. Like-named read-outs stand apart in the source and are kept apart here.

Legend:
[1] = Combination of Hec1 inhibitors with chemotherapeutic inhibitors; details: preliminary data
[2] = Pharmacokinetics in rats after i.v. injection; assay type: in vivo, SD rat
Experimental: (§1) Bioavailability: Selected compounds were administered to rats per os or via injection following well known procedures.

[3] = tested on: K562; assay: Antiproliferative activity (MTS assay), K562; assay type: cell-based; details: Homo sapiens, K562, 96 h, K562 cells
Experimental: (§2) Antiproliferative effect is expressed as IC50 values in microMolar final concentration.
(§3) Cells were grown at 37° C. in a humidified atmosphere with 5% CO2 and 95% air. Cells were seeded in 96 well tissue culture plates.
(§4) Compound treatment started after overnight incubation of cells (TO). […] Compound was added to the plate in triplicate wells, and the plates were then incubated for 96 hours. DMSO (compounds diluents) was also included and added to the plate in control wells. Cell viability was then determined by MTS assay using CellTiter 96® AQueous non-radioactive cell proliferation assay system (Promega). A plate reader (Molecular Devices, Vmax) was used to read the optical densities, and the results were used to deduce concentration-response curves. […] The results were analyzed using linear regression software (GraphPad Prism 5; GraphPad Software Inc.).
(§5) The GI50 values (growth inhibitory activity) were determined to emphasize on the correction for the cell count at time zero; thus, the % inhibition of test drug were: [1−(T−T0)/(C−T0)]×100; and these value were used to plot the concentration-response curves, and then analyzed with linear regression software (GraphPad Prism 5).

[4] = tested on: MDA-MB-231; assay: Antiproliferative activity (MTS assay), MDA-MB-231; assay type: cell-based; details: Homo sapiens, MDA-MB-231, 96 h, MDA-MB-231 cells
Experimental: as §2, §3, §4, §5

[5] = tested on: Hela; assay: Antiproliferative activity (MTS assay), Hela; assay type: cell-based; details: Homo sapiens, HeLa, 96 h, Hela cells
Experimental: as §2, §3, §4, §5

[6] = tested on: MDA-MB-468; assay: Antiproliferative activity (MTS assay), MDA-MB-468; assay type: cell-based; details: Homo sapiens, MDA-MB-468, 96 h, MDA-MB-468 cells
Experimental: as §2, §3, §4, §5

[7] = Pharmacokinetics in rats after oral administration; assay type: in vivo, SD rat; details: for MRT inf: read-out: MRT0-inf
Experimental: as §1

[8] = compound 95 i.v., SD rat, individual rats No. 1-3
[9] = compound 95 oral, SD rat, individual rats No. 1-3
[10] = i.v. 2 mg/kg, SD rat, individual rats No. 1-3, 2 mg/kg
[11] = Sprague-Dawley, rat, serum, po, 20 mg/kg, oral 20 mg/kg, 1% methyl-cellulose, SD rat, Mean
[12] = Sprague-Dawley, rat, serum, po, 20 mg/kg, oral 20 mg/kg, SD rat, individual rats No. 1-3
[13] = oral 20 mg/kg, SD rat, individual rats No. 1-3, 20 mg/kg
[14] = compound 42 i.v., SD rat, individual rats No. 1-3
[15] = compound 42 oral, SD rat, individual rats No. 1-3

In the case of `CC(=O)O[C@H]1C(=O)[C@@]2(C)[C@H]([C@H](OC(=O)c3ccccc3)[C@]3(O)C[C@H](OC(=O)[C@H](O)[C@@H](NC(=O)c4ccccc4)c4ccccc4)C(C)=C1C3(C)C)[C@]1(OC(C)=O)CO[C@@H]1C[C@@H]2O` [Taxol], the “effect in combination of Hec1 inhibitors with chemotherapeutic inhibitors” value (shortened to “effect in combination of Hec1 inhibitors”) [1] is reported as “synergistic effect”.

With `COc1ccc(Oc2cc(C)c(-c3csc(NC(=O)c4ccncc4)n3)c(C)c2)cc1` [Compound 95] the MRT ([2]; Sprague-Dawley, rat, serum, iv, 2 mg/kg, compound 95 i.v., SD rat, individual rats No. 1-3, read-out: MRT) was 131 h, the half-life ([2]; Sprague-Dawley, rat, serum, iv, 2 mg/kg, compound 95 i.v., formulation and route otherwise identical to compound 82, SD rat, Mean) was 442 min and the C0 ([2]; Sprague-Dawley, rat, serum, iv, 2 mg/kg, compound 95 i.v., formulation and route otherwise identical to compound 82, SD rat, Mean, read-out: C0) was 3670 ng/mL. For the same molecule, the MRT ([2]; Sprague-Dawley, rat, serum, iv, 2 mg/kg, compound 95 i.v., formulation and route otherwise identical to compound 82, SD rat, Mean, read-out: MRT) was 143 h, the C0 [2, 8] was 2519 ng/mL and 3144 ng/mL and 5356 ng/mL and the MRT [2, 8] was 189 h and 108 h. It also gave an IC50 [3] of 30 nM, an IC50 [4] of 0.03 µM and an IC50 [5] of 50 nM. For the same molecule, the IC50 [6] was 0.04 µM, the MRT ([7]; SD, rat, serum, po, 20 mg/kg, compound 95 oral, SD rat, individual rats No. 1-3, read-out: MRT) was 4.4 h and the half-life ([7]; SD, rat, serum, po, compound 95 oral, formulation and route otherwise identical to compound 82, SD rat, Mean) was 652 min. For the same molecule, the MRT ([7]; SD, rat, serum, po, compound 95 oral, formulation and route otherwise identical to compound 82, SD rat, Mean, read-out: MRT) was 4.24 h, the Tmax ([7]; SD, rat, serum, po, compound 95 oral, formulation and route otherwise identical to compound 82, SD rat, Mean, read-out: Tmax) was 3 h and the half-life ([7]; Sprague-Dawley, rat, serum, po, 20 mg/kg, compound 95 oral, SD rat, individual rats No. 1-3) was 598 min. The MRT [7, 9] was 4.38 h and 3.92 h, the T1/2 [7, 9] was 12.86 h and 9.75 h and the Tmax [7, 9] was 4.00 h and 1.00 h.

For `COc1cccc2c1C(=O)c1c(O)c3c(c(O)c1C2=O)C[C@@](O)(C(=O)CO)C[C@@H]3O[C@H]1C[C@H](N)[C@H](O)[C@H](C)O1` [doxorubicin], the “effect in combination of Hec1 inhibitors” value [1] was “at most additive effect”.

In the case of `CC[C@]1(O)C[C@H]2CN(CCc3c([nH]c4ccccc34)[C@@](C(=O)OC)(c3cc4c(cc3OC)N(C=O)[C@H]3[C@@](O)(C(=O)OC)[C@H](OC(C)=O)[C@]5(CC)C=CCN6CC[C@]43[C@@H]65)C2)C1` [vincristine], the “effect in combination of Hec1 inhibitors” value [1] is reported as “synergistic effect”.

In the case of `CC[C@]1(O)C[C@@H]2CN(CCc3c([nH]c4ccccc34)[C@@](C(=O)OC)(c3cc4c(cc3OC)N(C)[C@H]3[C@@](O)(C(=O)OC)[C@H](OC(C)=O)[C@]5(CC)C=CCN6CC[C@]43[C@@H]65)C2)C1` [vinblastine], the “effect in combination of Hec1 inhibitors” value [1] is reported as “synergistic effect”.

Work on `Cc1cc(OC(C)C)cc(C)c1-c1csc(NC(=O)c2ccncc2)n1` [Compound 82] yielded a half-life ([2]; Sprague-Dawley, rat, serum, iv, 2 mg/kg, i.v. 2 mg/kg, 5% DMSO, 10% Cremophor, 85% WFI, SD rat, Mean) of 308 min, a C0 ([2]; Sprague-Dawley, rat, serum, iv, 2 mg/kg, i.v. 2 mg/kg, 5% DMSO, 10% Cremophor, 85% WFI, SD rat, Mean, read-out: C0) of 7020 ng/mL and an MRT inf ([2]; Sprague-Dawley, rat, serum, iv, 2 mg/kg, i.v. 2 mg/kg, 5% DMSO, 10% Cremophor, 85% WFI, SD rat, Mean, read-out: MRT0-inf) of 6.46 h. For the same molecule, the C0 ([2]; Sprague-Dawley, rat, serum, iv, 2 mg/kg, i.v. 2 mg/kg, SD rat, individual rats No. 1-3, read-out: C0) was 8180 ng/mL, the C0 [2, 10] was 5590 ng/mL and 7282 ng/mL and the MRT0-inf [2, 10] was 8.80 h and 3.36 h and 7.22 h. The T1/2 [2, 10] was 6.85 h and 2.79 h and 5.78 h, the half-life [7, 11] was 265 min and the MRT inf [7, 11] was 7.73 h. The Tmax ([7]; Sprague-Dawley, rat, serum, po, 20 mg/kg, oral 20 mg/kg, 1% methyl-cellulose, SD rat, Mean, read-out: Tmax) was 4 h, the half-life [7, 12] was 272 min and the MRT inf [7, 12] was 7.71 h. For the same molecule, the Tmax ([7]; Sprague-Dawley, rat, serum, po, 20 mg/kg, oral 20 mg/kg, SD rat, individual rats No. 1-3, read-out: Tmax) was 4 h, the MRT0-inf [7, 13] was 5.76 h and 9.72 h and the T1/2 [7, 13] was 2.94 h and 5.76 h.

For `COc1cc(C)c(-c2csc(NC(=O)c3ccncc3)n2)c(C)c1` [Compound 42], the C0 ([2]; Sprague-Dawley, rat, serum, iv, 2 mg/kg, compound 42 i.v., SD rat, individual rats No. 1-3, read-out: C0) was 11500 ng/mL, the MRT ([2]; Sprague-Dawley, rat, serum, iv, 2 mg/kg, compound 42 i.v., SD rat, individual rats No. 1-3, read-out: MRT) was 1.3 h and the half-life ([2]; Sprague-Dawley, rat, serum, iv, 2 mg/kg, compound 42 i.v., formulation and route otherwise identical to compound 82, SD rat, Mean) was 91.2 min. The C0 ([2]; Sprague-Dawley, rat, serum, iv, 2 mg/kg, compound 42 i.v., formulation and route otherwise identical to compound 82, SD rat, Mean, read-out: C0) was 11500 ng/mL, the MRT ([2]; Sprague-Dawley, rat, serum, iv, 2 mg/kg, compound 42 i.v., formulation and route otherwise identical to compound 82, SD rat, Mean, read-out: MRT) was 1.26 h and the C0 [2, 14] was 11344 ng/mL and 11625 ng/mL. The MRT [2, 14] was 1.20 h and 1.28 h, the T1/2 [2, 14] was 1.40 h and 0.99 h and 2.16 h and the half-life ([7]; Sprague-Dawley, rat, serum, po, 20 mg/kg, compound 42 oral, SD rat, individual rats No. 1-3) was 197 min. It also gave an MRT ([7]; Sprague-Dawley, rat, serum, po, 20 mg/kg, compound 42 oral, SD rat, individual rats No. 1-3, read-out: MRT) of 3.46 h, a Tmax ([7]; Sprague-Dawley, rat, serum, po, 20 mg/kg, compound 42 oral, SD rat, individual rats No. 1-3, read-out: Tmax) of 1.5 h and a half-life ([7]; Sprague-Dawley, rat, serum, po, 20 mg/kg, compound 42 oral, formulation and route otherwise identical to compound 82, SD rat, Mean) of 191 min. The MRT ([7]; Sprague-Dawley, rat, serum, po, 20 mg/kg, compound 42 oral, formulation and route otherwise identical to compound 82, SD rat, Mean, read-out: MRT) was 3.36 h, the Tmax ([7]; Sprague-Dawley, rat, serum, po, 20 mg/kg, compound 42 oral, formulation and route otherwise identical to compound 82, SD rat, Mean, read-out: Tmax) was 1.33 h and the MRT [7, 15] was 3.78 h and 2.83 h. For the same molecule, the T1/2 [7, 15] was 3.30 h and 2.97 h and the Tmax [7, 15] was 1 h.

For `COc1ccc(-c2csc(NC(=O)c3cccnc3)n2)c(F)c1` [Compound 21], the IC50 [3] was over 10000 nM, the IC50 [4] was over 10 µM and the IC50 [5] was over 10000 nM. For the same molecule, the IC50 [6] was over 10 µM.

`COc1ccc(Oc2cc(C)c(-c3csc(NC(=O)c4ccnc([N+](=O)[O-])c4)n3)c(C)c2)cc1` [Compound 124] gave an IC50 [3] of 120 nM, an IC50 [4] of 0.22 µM and an IC50 [5] of 330 nM. For the same molecule, the IC50 [6] was 0.53 µM.

`Cc1cc(C)c(-c2csc(NC(=O)c3ccnc(N4CCOCC4)c3)n2)c(C)c1` [Compound 83] gave an IC50 [3] of 2230 nM, an IC50 [4] of 3.51 µM and an IC50 [5] of 2370 nM. For the same molecule, the IC50 [6] was 4.17 µM.

With `COc1ccc(-c2csc(NC(=O)c3ccncc3)n2)c(OC)c1` [Compound 13] the IC50 [3] was over 10000 nM, the IC50 [4] was over 10 µM and the IC50 [5] was over 10000 nM. The IC50 [6] was over 10 µM.

With `Cc1cc(C)c(-c2csc(NC(=O)c3ccnnc3)n2)c(C)c1` [Compound 8] the IC50 [3] was 5600 nM, the IC50 [4] was 3.12 µM and the IC50 [5] was 8750 nM. For the same molecule, the IC50 [6] was 6.18 µM.

With `Cc1cc(C)c(-c2csc(NC(=O)c3cccnc3)n2)c(C)n1` [Compound 46] the IC50 [3] was over 10000 nM, the IC50 [4] was 7.41 µM and the IC50 [5] was over 10000 nM. For the same molecule, the IC50 [6] was 7.19 µM.

Work on `O=C(Nc1nc(-c2c(F)cc(F)cc2F)cs1)c1ccncc1` [Compound 76] yielded an IC50 [3] of 940 nM, an IC50 [4] of 0.54 µM and an IC50 [5] of 1120 nM. For the same molecule, the IC50 [6] was 1.25 µM.

Work on `Cc1cc(C)c(-c2csc(NC(=O)c3ccncn3)n2)c(C)c1` [Compound 5] yielded an IC50 [3] of 5740 nM, an IC50 [4] of 7.37 µM and an IC50 [5] of over 10000 nM. It also gave an IC50 [6] of 4.57 µM.

`COc1cc(-c2csc(NC(=O)c3ccoc3)n2)ccc1O` [Compound 51] showed an IC50 [3] of over 10000 nM, an IC50 [4] of over 10 µM and an IC50 [5] of over 10000 nM. For the same molecule, the IC50 [6] was over 10 µM.

In the case of `COCCCOc1cc(C)c(-c2csc(NC(=O)c3ccncc3)n2)c(C)c1` [Compound 110], the IC50 [3] is reported as 100 nM, the IC50 [4] is reported as 0.09 µM and the IC50 [5] is reported as 110 nM. The IC50 [6] was 0.13 µM.
